In patent publication US20090136720A1, “Azo Compound, Ink Composition, Recording Method and Colored Article” (priority 2006, published 2009):

Test: Solubility of the azo compound
Assay type: physicochemical
Settings: water; sodium salt

solubility: ≥ 100 mg/mL
SMILES: Cc1cc(N=Nc2c(S(=O)(=O)O)cc3c(S(=O)(=O)O)c(N=Nc4cc(S(=O)(=O)O)c5cc(S(=O)(=O)O)c(N=Nc6ccc([N+](=O)[O-])cc6S(=O)(=O)O)c(O)c5c4N)ccc3c2O)c(OCCCS(=O)(=O)O)cc1N=Nc1cc(S(=O)(=O)O)cc2cc(S(=O)(=O)O)cc(O)c12 [Compound No. 3]
